Consider 22 compounds from US5140040A, “1-aminomethyl-1,2,3,4-tetrahydronaphthalenes” (Abbott Laboratories, priority 1991, dated 1992).

Experiment [1] concerns norepinephrine uptake. Kind of experiment: Biogenic amine uptake inhibition, rat brain synaptosomes, tritiated norepinephrine. The experiment is classed as biochemical, Sprague-Dawley derived rats. Particulars: tritiated amine 0.1 μM, 37° C., 4 minutes, read-out: Biogenic Amine Uptake Inhibition IC50 Norephinephrine. The text has this: (§1) Sprague-Dawley derived rats of either sex, weighing about 180-250 g, were killed by decapitation. The brains were immediately removed, placed on a glass plate chilled over crushed ice and dissected according to a modification of the method of Glowinski and Iversen (J. Neurochem. 13, 655-669, 1966). First, the rhombencephalon was separated by transverse section and discarded. The remaining tissue was bisected by a midline sagittal cut. The hypothalamus was removed using the anterior and posterior reference points, respectively. The hippocampus was peeled away and discarded and the striata were exposed and removed. Frontal cortical tissue was dissected from remaining brain structures. The hypothalamus and striatum each weighed about 100 mg , the striata 50-75 mg, and the cortex weighed up to 800 mg. The tissues were placed in a cold Potter-Elvehjem glass homogenizer with 5 (cortex) or 10 (hypothalamus) and 20 (striatum) volumes of ice-cold 0.32M sucrose, pH 7.0 and homogenized by hand. The homogenate was centrifuged at 2500 rpm in a GLC centrifuge for 10 minutes in a refrigerated room. The supernatant fraction containing the synaptosomes was decanted, mixed thoroughly, and kept on crushed ice for use in the uptake studies.
(§2) Uptake studies were conducted according to the method of Synder and Coyle (J. PharmacoI. Exp. Ther. 165, 78-86, 1969) with minor modifications. Usually a 0.1 ml aliquot of the synaptosomal preparation was incubated in a mixture of 0.75 ml of modified Krebs-Ringer buffer, 0.05 ml of the drug being evaluated for uptake inhibition, and 0.1 ml of a 1 μM tritiated amine (norepinephrine, serotonin or dopamine) solution (final concentration 0.1 μM) for a total volume of 1 ml. The modified Krebs-Ringer bicarbonate buffer used in these studies contained 118 mM NaCl, 4 mM KCl, 1.3 mM CaCl2, 1.12 mM KH2 PO4, 1.2 mM MgSO4 and 24 mM NaHCO3, with the addition of 5 mM glucose, 0.15 mM disodium EDTA, 12.5 μM pargyline and 1 mM ascorbic acid. Uptake was initiated by the addition of the tritiated amine, and the mixture was incubated at 37° C. in a Dubnoff Metabolic Shaking Incubator for 4 minutes. Control incubations without the test drug were conducted at 37° C. to determine total uptake and non-specific binding at 0° C. to correct for the diffusion of the tritiated amine into the synaptosomes and/or binding. Filtration was used to terminate uptake and collect the synaptosomes. In the filtration technique the incubation mixture was diluted with 4 ml of ice-cold 0.9% NaCl and filtered through GF/B glass microfiber filters (Whatman) under gentle vacuum. The filters were subsequently washed four times with 5 ml of ice-cold 0.9% NaCl and transferred to glass scintillation vials. Soluene® ([…]) and IONIC FLUOR (Packard) scintillation fluid (3.5 ml) were added and the vials were placed in a mechanical shaker for 1 hour. All samples were cold and dark adapted and counted in a TriCarb® (Packarad) Model 460 Liquid Scintillation Spectrometer. Corrections were automatically made for quenching by the external standard method and for luminescence. All results (see Table 2) are based on total radioactivity.

In experiment [2] the test system is dopamine uptake. The experiment in a line: Biogenic amine uptake inhibition, rat brain synaptosomes, tritiated dopamine. The experiment is classed as biochemical, Sprague-Dawley derived rats. Particulars: tritiated amine 0.1 μM, 37° C., 4 minutes.
From the text: as §1, §2

Experiment [3] has as its system serotonin uptake. The experiment in a line: Biogenic amine uptake inhibition, rat brain synaptosomes, tritiated serotonin. The experiment is classed as biochemical, Sprague-Dawley derived rats. Particulars: tritiated amine 0.1 μM, 37° C., 4 minutes.
From the text: as §1, §2

For experiment [4], the target named is alpha-2-receptor. Kind of experiment: Radioligand binding, alpha-2 adrenoceptor, rat cerebral cortices, [^3 H]-rauwolscine. To be noted: for Ki: rat cerebral cortices, [^3 H]-rauwolscine; for alpha-2 - Selectivity Ki alpha-1/Ki alpha 2: ratio of Ki alpha-1 to Ki alpha-2. On the procedure: The compounds were assessed for alpha-adrenergic receptor subtype selectivity by use of radioligand binding techniques as described previously (DeBernardis et.al. J. Med. Chem. 28, 1398 (1985)).

Counter-ions that a name gives are not always drawn.

As to “8-Fluoro-5,6-methylenedioxy-1-(3-phenylpyrrolidino1-methyl) tetralin hydrochloride [Example 160]”, the IC50 in experiment [1] is 991 nM; in experiment [2], 2930 nM; in experiment [3], 1840 nM.
In the case of `COc1ccc2c(c1)CCCC2CN(C)CCc1cccs1` (stereo not drawn) [Example 5, 1-((N-Methylamino)methyl-N-(2-(2-thienyl)ethyl))-6-methoxy tetralin methanesulfonate], the IC50 amounted to 1040 nM in experiment [1], 6520 nM in experiment [2] and 5920 nM in experiment [3]. Besides, the Ki in experiment [4] is 0.8 nM. In experiment [4], the “alpha-2 - Selectivity Ki alpha-1/Ki alpha 2” value was determined as 725.
`COc1ccc2c(c1)CCCC2CN(C)CCc1cccc(F)c1` (stereo not drawn) [Example 6b, 1-((N-methylamino)methyl-N-(2-(m-fluorophenyl)ethyl))-6-methoxy tetralin hydrochloride]: the IC50 in experiment [1] stood at 574 nM; in experiment [2] it was 10100 nM; in experiment [3] it was 1950 nM. The compound also gave a Ki in experiment [4] of 5 nM. Also, the “alpha-2 - Selectivity Ki alpha-1/Ki alpha 2” value in experiment [4] is listed as 236.
In the case of `CN(CCc1ccccc1)CC1CCCc2cc(O)ccc21` (stereo not drawn) [Example 11, 1-((N-Methylamino)methyl-N-(2-phenylethyl))-6-hydroxy tetralin hydrobromide], the half-inhibitory concentration (IC50) in experiment [1] amounted to 1740 nM; in experiment [2], 10100 nM; in experiment [3], 7230 nM.
As to `COc1cccc2c1CCCC2CN(C)CCc1cccs1` (stereo not drawn) [Example 19, 1-((N-Methylamino)methyl-N-(2-(2-thienyl)ethyl))-5-methoxy tetralin methanesulfonate], the figures for the concentration for half-maximal inhibition (IC50) in experiment [1], in experiment [2] and in experiment [3] were 498 nM, 6090 nM and 411 nM, respectively.
On to `COc1cccc2c1CCCC2CN(C)CCc1cccc(F)c1` (stereo not drawn) [Example 20c, 1-((N-methylamino)methyl-N-(2-(m-fluorophenyl)ethyl))-5-methoxytetralinmethanesulfonate], for which the IC50 in experiment [1] amounted to 1580 nM; in experiment [2], 9170 nM; in experiment [3], 161 nM.
For `CN(CCc1cccs1)CC1CCCc2c1ccc1c2OCCO1` (stereo not drawn) [Example 30, 1-((N-Methylamino)methyl-N-(2-(2-thienyl)ethyl))-5,6-ethylenedioxy tetralin hydrochloride], the IC50 was determined as 624 nM in experiment [1], 8080 nM in experiment [2] and 1340 nM in experiment [3]. Also, the Ki in experiment [4] came out at 4 nM. The “alpha-2 - Selectivity Ki alpha-1/Ki alpha 2” value in experiment [4] is 118.
With `Cc1cc(O)c(O)c2c1C(CN(C)CCc1cccc(F)c1)CCC2` (stereo not drawn) [Example 34, 1-(N-Methylamino)methyl-N-(2-(m-fluorophenyl)ethyl))-5,6-dihydroxy-8-methyltetralin hydrobromide], the IC50 in experiment [1] was determined as 365 nM; in experiment [2] it was 9400 nM; in experiment [3], 2200 nM. The compound further gave a Ki in experiment [4] of 2.6 nM. Also, the “alpha-2 - Selectivity Ki alpha-1/Ki alpha 2” value in experiment [4] worked out at 127.
For the compound `CCN(CCc1cccs1)CC1CCCc2cc(OC)ccc21` (stereo not drawn) [Example 41, 1-((N-Ethylamino)methyl-N-(2-(2-thienyl)ethyl))-6-methoxy tetralin hydrochloride], the figures for the IC50 in experiment [1], in experiment [2] and in experiment [3] were 200 nM, 6030 nM and 2280 nM, respectively. For the same compound, the Ki in experiment [4] is 2.9 nM. The “alpha-2 - Selectivity Ki alpha-1/Ki alpha 2” value in experiment [4] is reported as 326.
Regarding `CCN(CCc1ccsc1)CC1CCCc2cc(OC)ccc21` (stereo not drawn) [Example 44, 1-N-Ethylamino)methyl-N-(2-(3-thienyl)ethyl))-6-methoxy tetralin hydrochloride], the values for the IC50 in experiment [1], in experiment [2] and in experiment [3] were 357 nM, 8640 nM and 3290 nM, respectively. Also, the affinity in experiment [4], expressed as Ki, was 5.6 nM. In addition, in experiment [4], the “alpha-2 - Selectivity Ki alpha-1/Ki alpha 2” value turned out to be 105.
For `CCN(CCc1cccc(F)c1)CC1CCCc2c(OC)cccc21` (stereo not drawn) [Example 72, 1-((N-Ethylamino)methyl-N-(2-(m-fluorophenyl)ethyl))-5-methoxy tetralin hydrochloride], the values for the IC50 in experiment [1], in experiment [2] and in experiment [3] were 137 nM, 6830 nM and 466 nM, respectively.
In the same order, the values of `CCN(CCc1cccs1)CC1CCCc2c(OC)cccc21` (stereo not drawn) [Example 73, 1-((N-Ethylamino)methyl-N-(2-(2-thienyl)ethyl))-5-methoxy tetralin hydrochloride] are 336 nM, 8430 nM and 840 nM.
Consider `c1ccc(C2CCN(CC3CCCc4c3ccc3c4OCO3)C2)cc1` (stereo not drawn) [Example 143a, 5,6-Methylenedioxy-1-(3-phenylpyrrolidino-1-methyl) tetralin methanesulfonate], for which the IC50 was determined as 1100 nM in experiment [1], 8720 nM in experiment [2] and 4030 nM in experiment [3]. For the same compound, the Ki in experiment [4] was 1.2 nM. Moreover, the “alpha-2 - Selectivity Ki alpha-1/Ki alpha 2” value in experiment [4] is on record as 43.
In the case of `Nc1ccc2c(c1)CCCC2CN1CCC(c2ccccc2)C1` (stereo not drawn) [Example 156, 6-Amino-1-(3-phenylpyrrolidino-1-methyl) tetralin dihydrochloride], in experiment [4], the Ki was 6 nM and the “alpha-2 - Selectivity Ki alpha-1/Ki alpha 2” value was 21.
In the same order, the values of `CCN(CCc1cccs1)CC1CCCc2c1ccc1c2OCO1` (stereo not drawn) [Example 164, 1-(N-Ethylamino)methyl-N-(2-(2-thienyl)ethyl))-5,6-methylenedioxy tetralin hydrochloride] are 3.7 nM and 258.
As to `CCN(CCc1cccc(F)c1)CC1CCCc2c1ccc1c2OCO1` (stereo not drawn) [Example 165, 1-((N-Ethylamino)methyl-N-(2 m-fluorophenethyl))-5,6-methylenedioxy tetralin hydrochloride], the IC50 in experiment [1] came out at 398 nM; in experiment [2], 6670 nM; in experiment [3] it was 1240 nM. The Ki in experiment [4] was determined as 3.5 nM. In addition, the “alpha-2 - Selectivity Ki alpha-1/Ki alpha 2” value in experiment [4] is 132.
In the case of `CN(CCc1cccc(F)c1)CC1CCCc2c1ccc1c2OCO1` (stereo not drawn) [Example 166, 1-((N-Methylamino)methyl-N-(2-m-fluorophenethyl))-5,6-methylenedioxy tetralin methanesulfonate], the IC50 in experiment [1] amounted to 1520 nM; in experiment [2], 8770 nM; in experiment [3] it was 400 nM. The Ki in experiment [4] is 4.5 nM. Moreover, in experiment [4], the “alpha-2 - Selectivity Ki alpha-1/Ki alpha 2” value is reported as 134.
For the compound `CN(CCc1cccc(F)c1)CC1CCCc2c1ccc1c2OCCO1` (stereo not drawn) [Example 167, 1-((N-Methylamino)methyl N-(2-m-fluorophenethyl))-5,6-ethylenedioxy tetralin methanesulfonate], in experiment [4], the Ki worked out at 4.2 nM and the “alpha-2 - Selectivity Ki alpha-1/Ki alpha 2” value is listed as 85.
On to `CCN(CCc1cccs1)CC1CCCc2c1ccc1c2OCCO1` (stereo not drawn) [Example 168, 1-((N-Ethylamino)methyl N-(2-(2-thienyl)ethyl))-5,6-ethylenedioxy tetralin hydrochloride], for which, in experiment [4], the Ki was 6.6 nM and the “alpha-2 - Selectivity Ki alpha-1/Ki alpha 2” value is given as 125.
On to `Fc1ccccc1C1CCN(CC2CCCc3c2ccc2c3OCO2)C1` (stereo not drawn) [Example 176a, 5,6-Methylenedioxy-1-(3-(o-fluorophenyl)pyrrolidino-1-methyl) tetralin methanesulfonate], for which the IC50 in experiment [1] was 1560 nM; in experiment [2], 7310 nM; in experiment [3], 2830 nM. In experiment [4], the Ki is 0.6 nM. Also, in experiment [4], the “alpha-2 - Selectivity Ki alpha-1/Ki alpha 2” value is recorded as 132.
Regarding `CN(c1ccc2c(c1)CCCC2CN1CCC(c2ccccc2)C1)S(C)(=O)=O` (stereo not drawn) [Example 193, 6-(N-methylmethylsulfonamido)-1-(3-(phenylpyrrolidino-1-methyl)tetralin hydrochloride], in experiment [4], the inhibitory constant (Ki) was 1.3 nM and the “alpha-2 - Selectivity Ki alpha-1/Ki alpha 2” value is 93.
For the compound `CN(C)CCCN1c2ccccc2CCc2ccccc21` [Imipramine, reference compound], the concentration for half-maximal inhibition (IC50) in experiment [1] is 346 nM; in experiment [2], 125000 nM; in experiment [3], 778 nM.

Broadly, the IC50 is the point on the concentration scale where inhibition reaches its midpoint. In general, Ki refers to the equilibrium dissociation constant of an inhibitor or competing ligand from its target.
